Measurements reported in ChEMBL document CHEMBL3785084, “Rational modification of the lead molecule: Enhancement in the anticancer and dihydrofolate reductase inhibitory activity” (Bioorg Med Chem Lett, 2016).

target: T1, Dihydrofolate reductase (Homo sapiens, UniProt P00374); experiment: Inhibition of human DHFR assessed as conversion of dihydrofolic acid to tetrahydrfolic acid by enzyme immunoassay in presence of NADPH; conditions: not given
T1 sequence (P00374 whole entry): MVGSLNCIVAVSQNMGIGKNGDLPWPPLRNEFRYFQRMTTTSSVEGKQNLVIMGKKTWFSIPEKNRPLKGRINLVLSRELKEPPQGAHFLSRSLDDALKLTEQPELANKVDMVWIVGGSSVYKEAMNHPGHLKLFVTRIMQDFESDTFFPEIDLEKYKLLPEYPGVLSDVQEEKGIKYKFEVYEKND

SMILES | IC50
O=C1NC(=O)C(=Cc2cn(CC(O)Cn3cc(C=C4C(=O)NC(=O)NC4=O)c4ccccc43)c3ccccc23)C(=O)N1 | 5 µM

test system: not listed separately; experiment: Cytotoxicity against human HL-60(TB) cells assessed as cell growth at 10^-5 M after 48 hrs by sulforhodamine B assay; assay type: functional; conditions: HL-60, 48 h, read-out: Activity

SMILES | growth at 10 µM
O=C1NC(=O)C(=Cc2cn(CC(O)Cn3cc(C=C4C(=O)NC(=O)NC4=O)c4ccccc43)c3ccccc23)C(=O)N1 | 107%

test system: K562; experiment: Cytotoxicity against human K562 cells assessed as cell growth at 10^-5 M after 48 hrs by sulforhodamine B assay; assay type: functional; conditions: K562, 48 h, read-out: Activity

SMILES | growth at 10 µM
O=C1NC(=O)C(=Cc2cn(CC(O)Cn3cc(C=C4C(=O)NC(=O)NC4=O)c4ccccc43)c3ccccc23)C(=O)N1 | 107%

test system: not listed separately; experiment: Cytotoxicity against human MOLT4 cells assessed as cell growth at 10^-5 M after 48 hrs by sulforhodamine B assay; assay type: functional; conditions: MOLT-4, 48 h, read-out: Activity

SMILES | growth at 10 µM
O=C1NC(=O)C(=Cc2cn(CC(O)Cn3cc(C=C4C(=O)NC(=O)NC4=O)c4ccccc43)c3ccccc23)C(=O)N1 | 110%

test system: SR; experiment: Cytotoxicity against human SR cells assessed as cell growth at 10^-5 M after 48 hrs by sulforhodamine B assay; assay type: functional; conditions: read-out: Activity

SMILES | growth at 10 µM
O=C1NC(=O)C(=Cc2cn(CC(O)Cn3cc(C=C4C(=O)NC(=O)NC4=O)c4ccccc43)c3ccccc23)C(=O)N1 | 96.9%

test system: A549; experiment: Cytotoxicity against human A549 cells assessed as cell growth at 10^-5 M after 48 hrs by sulforhodamine B assay; assay type: functional; conditions: A549, 48 h, read-out: Activity

SMILES | growth at 10 µM
O=C1NC(=O)C(=Cc2cn(CC(O)Cn3cc(C=C4C(=O)NC(=O)NC4=O)c4ccccc43)c3ccccc23)C(=O)N1 | 85.9%

test system: EKVX; experiment: Cytotoxicity against human EKVX cells assessed as cell growth at 10^-5 M after 48 hrs by sulforhodamine B assay; assay type: functional; conditions: read-out: Activity

SMILES | growth at 10 µM
O=C1NC(=O)C(=Cc2cn(CC(O)Cn3cc(C=C4C(=O)NC(=O)NC4=O)c4ccccc43)c3ccccc23)C(=O)N1 | 101%

test system: NCI-H226; experiment: Cytotoxicity against human NCI-H226 cells assessed as cell growth at 10^-5 M after 48 hrs by sulforhodamine B assay; assay type: functional; conditions: NCI-H226, 48 h, read-out: Activity

SMILES | growth at 10 µM
O=C1NC(=O)C(=Cc2cn(CC(O)Cn3cc(C=C4C(=O)NC(=O)NC4=O)c4ccccc43)c3ccccc23)C(=O)N1 | 108%

test system: NCI-H460; experiment: Cytotoxicity against human NCI-H460 cells assessed as cell growth at 10^-5 M after 48 hrs by sulforhodamine B assay; assay type: functional; conditions: NCI-H460, 48 h, read-out: Activity

SMILES | growth at 10 µM
O=C1NC(=O)C(=Cc2cn(CC(O)Cn3cc(C=C4C(=O)NC(=O)NC4=O)c4ccccc43)c3ccccc23)C(=O)N1 | 55.1%

test system: not listed separately; experiment: Cytotoxicity against human HCC2998 cells assessed as cell growth at 10^-5 M after 48 hrs by sulforhodamine B assay; assay type: functional; conditions: HCC 2998, 48 h, read-out: Activity

SMILES | growth at 10 µM
O=C1NC(=O)C(=Cc2cn(CC(O)Cn3cc(C=C4C(=O)NC(=O)NC4=O)c4ccccc43)c3ccccc23)C(=O)N1 | 94.6%

test system: not listed separately; experiment: Cytotoxicity against human HCT15 cells assessed as cell growth at 10^-5 M after 48 hrs by sulforhodamine B assay; assay type: functional; conditions: HCT-15, 48 h, read-out: Activity

SMILES | growth at 10 µM
O=C1NC(=O)C(=Cc2cn(CC(O)Cn3cc(C=C4C(=O)NC(=O)NC4=O)c4ccccc43)c3ccccc23)C(=O)N1 | 103%

test system: HT-29; experiment: Cytotoxicity against human HT-29 cells assessed as cell growth at 10^-5 M after 48 hrs by sulforhodamine B assay; assay type: functional; conditions: HT-29, 48 h, read-out: Activity

SMILES | growth at 10 µM
O=C1NC(=O)C(=Cc2cn(CC(O)Cn3cc(C=C4C(=O)NC(=O)NC4=O)c4ccccc43)c3ccccc23)C(=O)N1 | 88.3%

test system: not listed separately; experiment: Cytotoxicity against human SW620 cells assessed as cell growth at 10^-5 M after 48 hrs by sulforhodamine B assay; assay type: functional; conditions: SW-620, 48 h, read-out: Activity

SMILES | growth at 10 µM
O=C1NC(=O)C(=Cc2cn(CC(O)Cn3cc(C=C4C(=O)NC(=O)NC4=O)c4ccccc43)c3ccccc23)C(=O)N1 | 102%

test system: not listed separately; experiment: Cytotoxicity against human SF268 cells assessed as cell growth at 10^-5 M after 48 hrs by sulforhodamine B assay; assay type: functional; conditions: SF-268, 48 h, read-out: Activity

SMILES | growth at 10 µM
O=C1NC(=O)C(=Cc2cn(CC(O)Cn3cc(C=C4C(=O)NC(=O)NC4=O)c4ccccc43)c3ccccc23)C(=O)N1 | 93.4%

test system: not listed separately; experiment: Cytotoxicity against human SF295 cells assessed as cell growth at 10^-5 M after 48 hrs by sulforhodamine B assay; assay type: functional; conditions: SF-295, 48 h, read-out: Activity

SMILES | growth at 10 µM
O=C1NC(=O)C(=Cc2cn(CC(O)Cn3cc(C=C4C(=O)NC(=O)NC4=O)c4ccccc43)c3ccccc23)C(=O)N1 | 103%

test system: not listed separately; experiment: Cytotoxicity against human SF539 cells assessed as cell growth at 10^-5 M after 48 hrs by sulforhodamine B assay; assay type: functional; conditions: SF-539, 48 h, read-out: Activity

SMILES | growth at 10 µM
O=C1NC(=O)C(=Cc2cn(CC(O)Cn3cc(C=C4C(=O)NC(=O)NC4=O)c4ccccc43)c3ccccc23)C(=O)N1 | 108%

test system: not listed separately; experiment: Cytotoxicity against human SNB19 cells assessed as cell growth at 10^-5 M after 48 hrs by sulforhodamine B assay; assay type: functional; conditions: SNB-19, 48 h, read-out: Activity

SMILES | growth at 10 µM
O=C1NC(=O)C(=Cc2cn(CC(O)Cn3cc(C=C4C(=O)NC(=O)NC4=O)c4ccccc43)c3ccccc23)C(=O)N1 | 103%

test system: M14; experiment: Cytotoxicity against human M14 cells assessed as cell growth at 10^-5 M after 48 hrs by sulforhodamine B assay; assay type: functional; conditions: M14, 48 h, read-out: Activity

SMILES | growth at 10 µM
O=C1NC(=O)C(=Cc2cn(CC(O)Cn3cc(C=C4C(=O)NC(=O)NC4=O)c4ccccc43)c3ccccc23)C(=O)N1 | 98.7%

test system: MDA-MB-435; experiment: Cytotoxicity against human MDA-MB-435 cells assessed as cell growth at 10^-5 M after 48 hrs by sulforhodamine B assay; assay type: functional; conditions: MDA-MB-435, 48 h, read-out: Activity

SMILES | growth at 10 µM
O=C1NC(=O)C(=Cc2cn(CC(O)Cn3cc(C=C4C(=O)NC(=O)NC4=O)c4ccccc43)c3ccccc23)C(=O)N1 | 109%

test system: SK-MEL-2; experiment: Cytotoxicity against human SK-MEL-2 cells assessed as cell growth at 10^-5 M after 48 hrs by sulforhodamine B assay; assay type: functional; conditions: SK-MEL-2, 48 h, read-out: Activity

SMILES | growth at 10 µM
O=C1NC(=O)C(=Cc2cn(CC(O)Cn3cc(C=C4C(=O)NC(=O)NC4=O)c4ccccc43)c3ccccc23)C(=O)N1 | 113%

test system: SK-MEL-28; experiment: Cytotoxicity against human SK-MEL-28 cells assessed as cell growth at 10^-5 M after 48 hrs by sulforhodamine B assay; assay type: functional; conditions: SK-MEL-28, 48 h, read-out: Activity

SMILES | growth at 10 µM
O=C1NC(=O)C(=Cc2cn(CC(O)Cn3cc(C=C4C(=O)NC(=O)NC4=O)c4ccccc43)c3ccccc23)C(=O)N1 | 111%

test system: not listed separately; experiment: Cytotoxicity against human UACC257 cells assessed as cell growth at 10^-5 M after 48 hrs by sulforhodamine B assay; assay type: functional; conditions: UACC-257, 48 h, read-out: Activity

SMILES | growth at 10 µM
O=C1NC(=O)C(=Cc2cn(CC(O)Cn3cc(C=C4C(=O)NC(=O)NC4=O)c4ccccc43)c3ccccc23)C(=O)N1 | 110%

test system: not listed separately; experiment: Cytotoxicity against human IGROV1 cells assessed as cell growth at 10^-5 M after 48 hrs by sulforhodamine B assay; assay type: functional; conditions: IGROV-1, 48 h, read-out: Activity

SMILES | growth at 10 µM
O=C1NC(=O)C(=Cc2cn(CC(O)Cn3cc(C=C4C(=O)NC(=O)NC4=O)c4ccccc43)c3ccccc23)C(=O)N1 | 97.3%

test system: not listed separately; experiment: Cytotoxicity against human OVCAR5 cells assessed as cell growth at 10^-5 M after 48 hrs by sulforhodamine B assay; assay type: functional; conditions: OVCAR-5, 48 h, read-out: Activity

SMILES | growth at 10 µM
O=C1NC(=O)C(=Cc2cn(CC(O)Cn3cc(C=C4C(=O)NC(=O)NC4=O)c4ccccc43)c3ccccc23)C(=O)N1 | 109%

test system: not listed separately; experiment: Cytotoxicity against human NCI-ADR-RES cells assessed as cell growth at 10^-5 M after 48 hrs by sulforhodamine B assay; assay type: functional; conditions: read-out: Activity

SMILES | growth at 10 µM
O=C1NC(=O)C(=Cc2cn(CC(O)Cn3cc(C=C4C(=O)NC(=O)NC4=O)c4ccccc43)c3ccccc23)C(=O)N1 | 99.5%

test system: not listed separately; experiment: Cytotoxicity against human SKOV3 cells assessed as cell growth at 10^-5 M after 48 hrs by sulforhodamine B assay; assay type: functional; conditions: SK-OV-3, 48 h, read-out: Activity

SMILES | growth at 10 µM
O=C1NC(=O)C(=Cc2cn(CC(O)Cn3cc(C=C4C(=O)NC(=O)NC4=O)c4ccccc43)c3ccccc23)C(=O)N1 | 102%

test system: 786-0; experiment: Cytotoxicity against human 786-0 cells assessed as cell growth at 10^-5 M after 48 hrs by sulforhodamine B assay; assay type: functional; conditions: 786-0, 48 h, read-out: Activity

SMILES | growth at 10 µM
O=C1NC(=O)C(=Cc2cn(CC(O)Cn3cc(C=C4C(=O)NC(=O)NC4=O)c4ccccc43)c3ccccc23)C(=O)N1 | 91.3%

test system: A498; experiment: Cytotoxicity against human A498 cells assessed as cell growth at 10^-5 M after 48 hrs by sulforhodamine B assay; assay type: functional; conditions: A498, 48 h, read-out: Activity

SMILES | growth at 10 µM
O=C1NC(=O)C(=Cc2cn(CC(O)Cn3cc(C=C4C(=O)NC(=O)NC4=O)c4ccccc43)c3ccccc23)C(=O)N1 | 106%

test system: not listed separately; experiment: Cytotoxicity against human Caki1 cells assessed as cell growth at 10^-5 M after 48 hrs by sulforhodamine B assay; assay type: functional; conditions: CAKI-1, 48 h, read-out: Activity

SMILES | growth at 10 µM
O=C1NC(=O)C(=Cc2cn(CC(O)Cn3cc(C=C4C(=O)NC(=O)NC4=O)c4ccccc43)c3ccccc23)C(=O)N1 | 101%

test system: not listed separately; experiment: Cytotoxicity against human RXF393 cells assessed as cell growth at 10^-5 M after 48 hrs by sulforhodamine B assay; assay type: functional; conditions: RXF 393, 48 h, read-out: Activity

SMILES | growth at 10 µM
O=C1NC(=O)C(=Cc2cn(CC(O)Cn3cc(C=C4C(=O)NC(=O)NC4=O)c4ccccc43)c3ccccc23)C(=O)N1 | 89.1%

test system: not listed separately; experiment: Cytotoxicity against human UO31 cells assessed as cell growth at 10^-5 M after 48 hrs by sulforhodamine B assay; assay type: functional; conditions: UO-31, 48 h, read-out: Activity

SMILES | growth at 10 µM
O=C1NC(=O)C(=Cc2cn(CC(O)Cn3cc(C=C4C(=O)NC(=O)NC4=O)c4ccccc43)c3ccccc23)C(=O)N1 | 86%

test system: not listed separately; experiment: Cytotoxicity against human PC3 cells assessed as cell growth at 10^-5 M after 48 hrs by sulforhodamine B assay; assay type: functional; conditions: PC-3, 48 h, read-out: Activity

SMILES | growth at 10 µM
O=C1NC(=O)C(=Cc2cn(CC(O)Cn3cc(C=C4C(=O)NC(=O)NC4=O)c4ccccc43)c3ccccc23)C(=O)N1 | 93.7%

test system: not listed separately; experiment: Cytotoxicity against human DU145 cells assessed as cell growth at 10^-5 M after 48 hrs by sulforhodamine B assay; assay type: functional; conditions: DU-145, 48 h, read-out: Activity

SMILES | growth at 10 µM
O=C1NC(=O)C(=Cc2cn(CC(O)Cn3cc(C=C4C(=O)NC(=O)NC4=O)c4ccccc43)c3ccccc23)C(=O)N1 | 104%

test system: MDA-MB-231; experiment: Cytotoxicity against human MDA-MB-231 cells assessed as cell growth at 10^-5 M after 48 hrs by sulforhodamine B assay; assay type: functional; conditions: MDA-MB-231, 48 h, read-out: Activity

SMILES | growth at 10 µM
O=C1NC(=O)C(=Cc2cn(CC(O)Cn3cc(C=C4C(=O)NC(=O)NC4=O)c4ccccc43)c3ccccc23)C(=O)N1 | 105%

test system: not listed separately; experiment: Cytotoxicity against human BT549 cells assessed as cell growth at 10^-5 M after 48 hrs by sulforhodamine B assay; assay type: functional; conditions: BT-549, 48 h, read-out: Activity

SMILES | growth at 10 µM
O=C1NC(=O)C(=Cc2cn(CC(O)Cn3cc(C=C4C(=O)NC(=O)NC4=O)c4ccccc43)c3ccccc23)C(=O)N1 | 82.6%
